Reference: patent US9066965B1, “Purified limonin glucoside for prevention and treatment of chronic diseases” (The United States of America, as represented by the …, priority 2012, dated 2015)
Entries after “also recorded” stand apart in the source; their conditions may differ.

Experiments:
Type in all cases: in vivo, human
[1] = Complete blood cell count (hematological parameters); design: Monocytes / Eosinophil / Basophils / Platelets / WBC / Neutrophils / Lymphocytes: unit not given here
Description: Complete and differential cell counts were performed at the hematology laboratory of University of California Medical Center (UCDMC), Sacramento using Beckman Coulter LH 700.
(§1) Results are presented as means±SEM.

[2] = tested on: creatinine kinase MB (CKMB); experiment: Plasma CKMB concentration (Mesoscale multiplex); conditions: EDTA plasma; End LG, 500 mg/d, 56 days, n = 10, mean ± SEM
Description: CMP performed on serum samples at the chemistry laboratory of University of California Medical Center by using the Beckman Coulter DxC800. GGT and CKMB were determined in the EDTA plasma. GGT activity was determined by using Integra 400 Chemistry Analyzer, Roche Diagnostics. CKMB concentration was determined by using the Multiplex kits from Mesoscale Discovery (Gaithersburg, Md. 20877).
SAS PROC MIXED was used to fit the cross-over model (Littell R C, Milliken G A, Stroup W W, Wolfinger R D, Schabenberger O. SAS System for Mixed Models. Cay, N.C.: SAS Institute Inc.; 2006). Transformations were used when appropriate to stabilize the variances among the diets and periods. The fixed effects were order, diet, the interaction and the covariate; and the random effect was subjects within order. The test for order is a test for carry-over effect. […] Comparisons were made between the values at the end of placebo and LG treatments and using the baseline data as a covariate. Results are presented as means±SEM. Differences were considered statistically significant for P value<0.05.

[3] = Serum lipids and lipoproteins
Source text: Serum lipids were part of the CMP performed at University of California Medical Center (UCDMC) by using the Beckman Coulter DxC800 instrument. Lipoproteins A1 and B were ascertained in EDTA plasma using a Cobas Integra 400 Plus instrument with Roche reagents (Roche Diagnostics Corp., Indianapolis, Ind.). Lipoproteins C2, C3 and E were quantified in serum using a Cobas Integra 400 Plus instrument with Kamiya reagents (Kamiya Biomedical Co., Seattle, Wash.).
as §1

[4] = tested on: peripheral blood mononuclear cells (PBMNC); experiment: Ex-vivo production of cytokines by PBMNC
Description: Peripheral blood mononuclear cells (PBMNC) were isolated by using Dulbecco's phosphate buffered saline (DPBS) and suspended in Russ's-10 medium containing 10% autologous sera at concentrations of 1 million/mL. PBMNC were cultured in Costar 96-well sterile flat bottom plates coated with mouse anti-human CD3 and CD28 to stimulate T cells. Another set of wells were stimulated with LPS (final concentration 10 ng/mL) to stimulate monocytes. Cell culture supernatants were collected at 24, 48, and 72 hr after stimulation by centrifugation. Cell culture supernatants were stored at −80° C. until tested for cytokine concentrations. All cytokines were analyzed on a BioPlex instrument (BioRad Laboratories, Richmond, Calif.) with multiplex reagents kits (Millipore Corp., Danvers, Mass.).
as §1

[5] = Complete blood cell count (hematological parameters); conditions: End LG, 500 mg/d, 56 days, n = 10, mean ± SEM
[6] = End LG, 500 mg/d, 56 days, n = 10, mean ± SEM
[7] = serum, End LG, 500 mg/d, 56 days, n = 10, mean ± SEM
[8] = cells stimulated with CD3/28 (each 0.75 μg/mL, 72 hr), End LG, 500 mg/d, 56 days, n = 10, mean ± SEM
[9] = cells stimulated with LPS (10 ng/mL, 24 hr), End LG, 500 mg/d, 56 days, n = 10, mean ± SEM

SMILES: CC1(C)O[C@H]2CC(=O)OC[C@]23[C@H]2CC[C@@](C)([C@@H](O[C@@H]4O[C@H](CO)[C@@H](O)[C@H](O)[C@H]4O)c4ccoc4)[C@@]4(O[C@@H]4C(=O)O)[C@]2(C)C(=O)C[C@@H]13 [LG, limonin glucoside]
- Basophils [1, 6]: 0.03 ± 0.00
- Basophils, % of WBC [1, 6]: 0.47 ± 0.04 % of WBC
- Eosinophil [1, 6]: 0.18 ± 0.03
- Eosinophil, % of WBC [1, 6]: 3.32 ± 0.52 % of WBC
- Hematocrit [1, 6]: 41.47 ± 1.00%
- Hemoglobin [1, 6]: 13.94 ± 0.61 g/dL
- Lymphocytes [1, 6]: 1.80 ± 0.14
- Lymphocytes, % of WBC [1, 6]: 33.01 ± 2.09 % of WBC
- MCH [1, 6]: 31.08 ± 0.39 pico grams
- MCHC [1, 6]: 33.98 ± 0.16%
- MCV [1, 6]: 91.44 ± 1.29 microns
- Monocytes [1, 6]: 0.42 ± 0.03
- Monocytes, % of WBC [1, 6]: 7.79 ± 1.03 % of WBC
- Neutrophils [1, 6]: 3.14 ± 0.30
- Neutrophils, % of WBC [1, 6]: 55.41 ± 3.16 % of WBC
- Platelets [1, 6]: 229.00 ± 12.74
- RBC [1, 6]: 4.54 ± 0.13 × 10^−12/L
- RDW [1, 6]: 13.12 ± 0.13%
- WBC [1, 6]: 5.55 ± 0.38
- pH [1, 6]: 6.75 ± 0.27
- effect on hematological variables ([1]; vs end of placebo treatment, baseline as covariate): did not alter
- CKMB [2]: 2.60 ± 0.50 ng/mL
- Lipoprotein A1 [3, 6]: 142.91 ± 4.18 mg/dL
- Lipoprotein B [3, 6]: 114.5 ± 6.45 mg/dL
- Lipoprotein C2 [3, 6]: 6.21 ± 0.50 mg/dL
- Lipoprotein C3 [3, 6]: 13.28 ± 1.05 mg/dL
- Lipoprotein E [3, 6]: 4.91 ± 0.32 mg/dL
- change in plasma concentrations of Apo B ([3]; Table 4): did not find any change
- Cholesterol [3, 7]: 231.70 ± 8.83 mg/dL
- HDL-C [3, 7]: 44.20 ± 2.59 mg/dL
- LDL-C (Calc) [3, 7]: 159.10 ± 7.37 mg/dL
- Non-HDL-C [3, 7]: 187.50 ± 10.63 mg/dL
- Total-C:HDL-C [3, 7]: 5.47 ± 0.47
- Triglycerides [3, 7]: 142.60 ± 23.64 mg/dL
- effect on serum total-, HDL-, LDL-, non-HDL-cholesterol, triglycerides, lipoproteins A1, B, C2, C3, E ([3]; vs end of placebo treatment): did not alter
- ex-vivo secretion of cytokines by stimulated T cells and monocytes ([4]; LG vs placebo treatment): did not differ; also recorded: trend for decrease
- IL-2 [4, 8]: 58.8 ± 25.8 pg/mL
- IL-4 [4, 8]: 66.7 ± 12.8 pg/mL
- IL-10 [4, 8]: 779 ± 126 pg/mL
- Interferon γ [4, 8]: 51700 ± 10536 pg/mL
- TNF α [4, 8]: 6723 ± 970 pg/mL
- IL-1β [4, 9]: 4731 ± 1123 pg/mL
- IL-6 [4, 9]: 10926 ± 1586 pg/mL
- TNF α [4, 9]: 1354 ± 231 pg/mL
- concentrations of all secreted cytokines except IL-10 lower than after placebo ([4]; ex vivo, CD3/28 or LPS stimulated PBMNC, not significant): 8-18%
- Specific gravity [5]: 1.02 ± 0.00
